According to patent publication US9796742B2, “Kinase inhibitors” (Respivert Limited, priority 2012, dated 2017):
Where two headings read alike, the source gives them in different places.

Columns and labels:
[1] = system: PBMCs; assay: LPS-induced TNFα/IL-8 release in PBMC cells; format: cell-based; details: Homo sapiens, LPS-stimulated PBMCs
Summary of the method: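 Human PBMCs from healthy donors, isolated by density gradient, were pretreated with compound for 2 h and then stimulated with 1 ng/mL LPS (E. coli 0111:B4) for 24 h at 37° C, 5% CO2. Supernatant IL-8 and TNFα were measured by sandwich ELISA, and IC50 was taken from the dose-response curve.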

[2] = molecular target: p38 MAPKα (Homo sapiens (Human), UniProt Q16539); assay: p38 MAPKα enzyme inhibition (FRET, Z-LYTE; Method 2); format: biochemical
Summary of the method: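 p38 MAPKα (2.5 μL of 200 ng/mL stock) preincubated 2 h at RT with compound, then kinase reaction 1 h at RT with readout via MAPKAP-K2 activation using a Z-LYTE FRET peptide. Protease development 1 h; coumarin/fluorescein emission ratio gives phosphorylation. % inhibition versus uninhibited control; IC50 from concentration-response curve.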

[3] = molecular target: GSK3α (Homo sapiens (Human), UniProt P49840); assay: GSK 3α enzyme inhibition (FRET, Z-LYTE; Method 2); format: biochemical
Summary of the method: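 GSK3-α protein preincubated with compound for 105 min, then Z-LYTE FRET peptide and ATP added for 1 h before protease development for 1 h. Phosphorylation taken from coumarin/fluorescein emission ratio; percent inhibition against uninhibited control and IC50 calculated from concentration-response curves.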

[4] = system: HT29 cells; assay: IL-1β-induced IL-8 release in HT29 cells; format: cell-based; details: Homo sapiens, HT-29, IL-1β-stimulated HT29 cells, read-out: IC50 Values for Inhibition of Cytokine Release, HT29 cells IL-8
Procedure: HT29 cells, a human colon adenocarcinorna cell line, are plated in a 96 well plate (24 hrs) and pre-treated with compounds at the desired concentration for 2 hours before addition of 5 ng/mL of IL-1β (Abcam) for 24 hours. Supernatants are harvested for IL-8 quantification by Sandwich ELISA (Duo-set, R&D System). The IC50 is determined from the dose response curve.

[5] = molecular target: c-Src (Homo sapiens (Human), UniProt P12931); assay: c-Src enzyme inhibition (FRET, Z-LYTE); format: biochemical
Summary of the method: (§1)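 Z-LYTE FRET peptide assay with enzyme preincubated with compound for 2 h at RT, then 1 h kinase reaction and 1 h protease development. ATP solutions were 800 μM for c-Src and 60 μM for Syk. Inhibition was taken from the coumarin/fluorescein emission ratio, and IC50 from concentration-response curves.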

[6] = system: d-U937 cells; assay: LPS-induced TNFα/IL-8 release in d-U937 cells; format: cell-based; details: Homo sapiens, dU937, LPS-stimulated d-U937 cells
Procedure: U937 cells, a human monocytic cell line, are differentiated to macrophage-type cells by incubation with phorbol myristate acetate (PMA; 100 ng/mL) for 48 to 72 hr. Cells are pre-incubated with final concentrations of test compound for 2 hr and are then stimulated with 0.1 μg/mL of LPS (from E. Coli: O111:B4, Sigma) for 4 hr. The supernatant is collected for determination of TNFα and IL-8 concentrations by sandwich ELISA (Duo-set, R&D systems). The inhibition of TNFα production is calculated as a percentage of that achieved by 10 μg/mL of BIRB796 at each concentration of test compound by comparison against vehicle control. The relative 50% effective concentration (REC50) is determined from the resultant concentration-response curve. The inhibition of IL-8 production is calculated at each concentration of test compound by comparison with vehicle control. The 50% inhibitory concentration (IC50) is determined from the resultant concentration-response curve.

[7] = molecular target: Syk (Homo sapiens (Human), UniProt P43405); assay: Syk enzyme inhibition (FRET, Z-LYTE); format: biochemical
Summary of the method: as §1

[8] = system: PBMCs; assay: IL-2 and IFN gamma release in CD3/CD28 stimulated PBMC cells; format: cell-based; details: Homo sapiens
Procedure: PBMCs from healthy subjects are separated from whole blood using a density gradient (Lymphoprep, Axis-Shield Healthcare). Cells are added to a 96 well plate pre-coated with a mixture of CD3/[…] monoclonal antibodies (0.3 μg/mL eBioscience and 3 μg/mL BD Pharmingen respectively). Compound at the desired concentration is then added to the wells and the plate left for 3 days under normal tissue culture conditions. Supernatants are harvested and IL-2 and IFN gamma release determined by Sandwich ELISA (Duo-set, R&D System). The IC50 is determined from the dose response curve.

[9] = IL-8, read-out: IC50 Values for Inhibition of Cytokine Release, PBMCs IL-8
[10] = IL-8, read-out: IC50 Values for Inhibition of Cytokine Release, dU937 cells IL-8
[11] = TNFα (REC50 relative to BIRB796 per method), read-out: IC50 Values for Inhibition of Cytokine Release, dU937 cells TNFα
[12] = IL-2, read-out: IC50 Values for Inhibition of Cytokine Release, PBMCs IL-2

Chain of c-Src (P12931 whole entry, looked up): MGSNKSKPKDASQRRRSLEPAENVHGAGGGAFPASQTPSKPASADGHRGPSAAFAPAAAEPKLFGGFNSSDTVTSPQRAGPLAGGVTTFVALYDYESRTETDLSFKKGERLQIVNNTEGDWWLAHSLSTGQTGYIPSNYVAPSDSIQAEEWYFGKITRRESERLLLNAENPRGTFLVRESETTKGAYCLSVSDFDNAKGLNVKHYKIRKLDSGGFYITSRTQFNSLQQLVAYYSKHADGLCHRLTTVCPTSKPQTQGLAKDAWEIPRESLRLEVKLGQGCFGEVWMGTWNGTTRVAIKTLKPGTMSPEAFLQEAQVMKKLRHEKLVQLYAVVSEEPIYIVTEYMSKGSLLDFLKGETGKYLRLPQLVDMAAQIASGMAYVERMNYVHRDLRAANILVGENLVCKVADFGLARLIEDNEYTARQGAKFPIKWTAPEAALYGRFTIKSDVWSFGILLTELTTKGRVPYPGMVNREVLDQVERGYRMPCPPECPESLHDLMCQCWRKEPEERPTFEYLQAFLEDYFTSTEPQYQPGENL
Chain of p38 MAPKα (Q16539 whole entry): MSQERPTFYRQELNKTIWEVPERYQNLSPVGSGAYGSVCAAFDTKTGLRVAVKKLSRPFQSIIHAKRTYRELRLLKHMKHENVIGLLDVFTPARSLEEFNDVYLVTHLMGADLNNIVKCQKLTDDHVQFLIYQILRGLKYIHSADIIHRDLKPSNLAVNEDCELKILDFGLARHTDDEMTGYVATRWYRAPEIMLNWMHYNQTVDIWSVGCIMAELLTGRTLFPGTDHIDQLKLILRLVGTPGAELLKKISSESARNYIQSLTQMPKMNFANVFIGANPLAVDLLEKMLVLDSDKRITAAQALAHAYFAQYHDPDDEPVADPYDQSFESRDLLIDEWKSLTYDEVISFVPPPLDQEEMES
Chain of GSK3α (P49840 whole entry): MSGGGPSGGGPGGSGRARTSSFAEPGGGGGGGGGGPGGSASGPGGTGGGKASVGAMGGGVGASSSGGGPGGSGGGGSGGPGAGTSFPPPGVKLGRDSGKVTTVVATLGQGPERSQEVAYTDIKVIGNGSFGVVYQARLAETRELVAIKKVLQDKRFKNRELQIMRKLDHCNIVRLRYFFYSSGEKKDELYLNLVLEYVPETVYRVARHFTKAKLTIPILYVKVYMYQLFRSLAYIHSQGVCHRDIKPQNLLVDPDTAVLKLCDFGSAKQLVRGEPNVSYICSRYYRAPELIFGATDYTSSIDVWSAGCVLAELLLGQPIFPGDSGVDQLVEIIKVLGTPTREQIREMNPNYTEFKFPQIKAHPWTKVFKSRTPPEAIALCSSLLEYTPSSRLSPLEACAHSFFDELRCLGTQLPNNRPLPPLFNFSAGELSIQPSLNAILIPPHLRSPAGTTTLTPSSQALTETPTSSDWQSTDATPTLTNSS

SMILES | IC50 [1, 9] | IC50 ([1]; TNFα, read-out: IC50 Values for Inhibition of Cytokine Release, PBMCs TNFα) | IC50 [2] | IC50 [3] | IC50 [4] | IC50 [5] | IC50 [6, 10] | IC50 [6, 11] | IC50 [7] | IC50 [8, 12] | IC50 ([8]; IFNγ, read-out: IC50 Values for Inhibition of Cytokine Release, PBMCs IFNγ)
CN(c1ccccc1)c1nccc(Oc2ccc(NC(=O)Nc3cc(C(C)(C)C)nn3-c3ccc(P(C)(C)=O)cc3)c3ccccc23)n1 [Example 15, 1-(3-(tert-Butyl)-1-(4-(dimethylphosphoryl)phenyl)-1H-pyrazol-5-yl)-3-(4-((2-(methyl-(phenyl)amino)pyrimidin-4-yl)oxy)naphthalen-1-yl)urea] | 680 nM | 200 nM | 56 nM | > 10000 nM | 632 nM | > 1000 nM | 398 nM | 182 nM | > 1000 nM |  | 
CC(C)(C)c1cc(NC(=O)Nc2ccc(Oc3ccnc(Nc4ccccc4)n3)c3ccccc23)n(-c2cccc(CP(C)(C)=O)c2)n1 [Example 23, 1-(3-(tert-Butyl)-1-(3-((dimethylphosphoryl)methyl)phenyl)-1H-pyrazol-5-yl)-3-(4-((2-(phenylamino)pyrimidin-4-yl)oxy)naphthalen-1-yl)urea] | 7.5 nM |  | 265 nM | 1640 nM | 13.5 nM | 40 nM | 2.2 nM | 1.4 nM | 97 nM | 42.7 nM | 
COc1cc(Nc2nccc(Oc3ccc(NC(=O)Nc4cc(C(C)C)nn4-c4cccc(CP(C)(C)=O)c4)c4ccccc34)n2)cc(C(=O)NCCN2CCOCC2)c1 [Example 38, 3-((4-((4-(3-(1-(3-((Dimethylphosphoryl)methyl)phenyl)-3-isopropyl-1H-pyrazol-5-yl)-ureido)naphthalen-1-yl)oxy)pyrimidin-2-yl)amino)-5-methoxy-N-(2-morpholinoethyl)-benzamide] | 3.8 nM |  | 10 nM | 1250 nM | 27 nM | 2 nM | 2.9 nM | 1.6 nM | 3 nM | 9.2 nM | 
COc1cc(Nc2nccc(Oc3ccc(NC(=O)Nc4cc(C(C)C)nn4-c4cccc(CP(C)(C)=O)c4)c4ccccc34)n2)cc(OCCN2CCOCC2)c1 [Example 39, 1-(1-(3-((Dimethylphosphoryl)methyl)phenyl)-3-isopropyl-1H-pyrazol-5-yl)-3-(4-((2-((3-methoxy-5-(2-morpholinoethoxy)phenyl)amino)pyrimidin-4-yl)oxy)naphthalen-1-yl)urea] | 1.2 nM |  | 13 nM | 2230 nM | 4.6 nM | 3 nM |  | 0.5 nM | 1 nM |  | 
COCCOCCOCCOc1cc(Nc2nccc(Oc3ccc(NC(=O)Nc4cc(C(C)C)nn4-c4cccc(CP(C)(C)=O)c4)c4ccccc34)n2)cc(OC)c1 [Example 45, 1-(1-(3-((Dimethylphosphoryl)methyl)phenyl)-3-isopropyl-1H-pyrazol-5-yl)-3-(4-((2-((3-methoxy-5-(2-(2-(2-methoxyethoxy)ethoxy)ethoxy)phenyl)amino)pyrimidin-4-yl)oxy)naphthalen-1-yl)urea] | 3.3 nM |  | 21 nM | 1130 nM | 6.5 nM |  |  | 3.9 nM |  | 19.3 nM | 
CC(C)(C)c1cc(NC(=O)Nc2ccc(Oc3ccnc(Nc4cc(OC(F)(F)F)cc(C(=O)NCCN5CCOCC5)c4)n3)c3ccccc23)n(-c2cccc(CP(C)(C)=O)c2)n1 [Example 59, 3-((4-((4-(3-(3-(tert-Butyl)-1-(3-((dimethylphosphoryl)methyl)phenyl)-1H-pyrazol-5-yl)-ureido)naphthalen-1-yl)oxy)pyrimidin-2-yl)amino)-N-(2-morpholinoethyl)-5-(trifluoromethoxy)benzamide] | 0.8 nM |  | 81 nM | 1240 nM | 1.9 nM | 7 nM | 0.9 nM |  | 18 nM | 75.1 nM | 2.5 nM
